Like-named read-outs stand apart in the source and are kept apart here.
Assays:
Format in all cases: cell-based, human
catalase (CAT) = test: qRT-PCR relative mRNA expression, CAT; conditions: for CAT expression change: G-361; for Relative mRNA expression level CAT (RQ): G-361, 48 h incubation, RQ = 2^-ΔΔCt, mean ± SD, control 1.016
Procedure: (§1) […] cell line was seeded into 6-well plates in the concentration of 4 × 10^5 cells/well. Thiosemicarbazide derivatives were added when 70–80% of confluence was achieved. After 48 h of incubation, 1 mL of TRIzol™ Reagent (Invitrogen, Carlsbad, CA, USA) was added to lyse the cells. Lysates were centrifuged for 5 min at 12,000× g at 4 °C, and clear supernatants were processed according to the manufacturer’s protocol. Then, reverse transcription was performed using NG dART RT-PCR kit (EURx, Gdańsk, Poland) and a Mastercycler gradient thermocycler (Eppendorf, Hamburg, Germany). Thermal profile of the reaction: 10 min at 25 °C, then 50 min at 50 °C, and 5 min at 85 °C. mRNA levels of the genes DHODH, 18SRNA, and BACT were assessed using TaqMan Fast Advanced Master Mix (ThermoFisher, Waltham, MA, USA). mRNA levels of the following genes: CAT, SOD2,18SRNA TBP were assessed using PowerUp SYBR Green Master Mix (ThermoFisher, Waltham, MA, USA) in a 7500 Fast Real-Time PCR System (ThermoFisher, Waltham, MA, USA). Thermal profile of the reactions performed: 20 s at 95 °C, followed by 40 cycles of 3 s at 95 °C and 30 s at 60 °C. The reaction was carried out in triplicates. Relative expression of the tested genes was determined by qRT-PCR and the ΔΔCt method. The statistical analysis was performed with RQ values (relative quantification, RQ = 2^−∆ΔCt).

melanoma line G-361 [1] = test: Intracellular thiol / reduced glutathione (GSH) content, VB-48 vitality assay; conditions: G-361, 24 h, compound at IC50 concentration, representative histogram; quadrant not defined in legend
Procedure: Analyses of the levels of cellular thiols were performed using NC 3000 system (Chemometec., Lillerød, Denmark) according to the manufacturer’s protocol for the cell vitality assay. The G-361 cells were seeded in 12-well culture plates at a density of 1 × 10^5 cell/mL and the tested compounds in concentrations corresponding to IC50 value were added when 70–80% of confluence was achieved. The cells were counted, and suspended in 1 mL of culture medium. A representative sample of 190 uL was pipetted into the new Eppendorf tubes and 10 µL of Solution 5 (which contains acridine orange (AO) that stains all nucleated cells; PI which stains dead cells only; and VitaBright-48 TM ([…]) which stains viable cells in an intensity-dependent manner reliant on the level of thiols) was added to the cell suspension. Next, the stained cells were loaded into 8-chamber NC-Slides A8™ (Chemometec., Lillerød, Denmark) and measured using the Vitality (VB-48) Assay protocol in the NC-3000 image cytometer. The experiment was performed three times with three replicates.

melanoma line G-361 [2] = test: Annexin V / propidium iodide apoptosis assay (image cytometry); conditions: G-361, 24 h, compound at IC50 concentration, representative histogram
Procedure: Cell apoptosis assays were performed using an NC 3000 system (Chemometec., Lillerød, Denmark) according to the manufacturer’s protocol for the Annexin V Assay. The G-361 cells were seeded in 6-well plates at a density of 2 × 10^5 cells/mL and the tested compounds with concentration IC50 were added when 70–80% of confluence was achieved. After 24 h incubation, cells were suspended in 100 μL of Annexin V binding buffer with 2 µL of Annexin V-CF488A conjugate (FITC-labeled annexin V) and 2 µL of Solution 15 (Hoechst33342 stains). In the next step, the cells were incubated for 15 min at 37 °C and subsequently centrifuged at 400× g for 5 min. Following the removal of the supernatant, the cell pellets were resuspended in 300 µL of Annexin V binding buffer and centrifuged twice under the conditions described above. Eventually, the cell pellets were resuspended in 100 µL of Annexin V binding buffer and 2 µL of Solution 16 (propidium iodide, which stains late apoptotic and necrotic cells) was added. The prepared samples were analyzed immediately using 2-chamber NC-Slides A2™ (Chemometec., Lillerød, Denmark) and the Annexin V Assay protocol. The obtained scatterplots were used to demarcate the percentage of healthy cells and early and late apoptotic cells. The experiment was performed three times with three replicates.

[3] = system: dihydroorotate dehydrogenase (DHODH); test: qRT-PCR relative mRNA expression, DHODH; conditions: G-361, 48 h incubation, RQ = 2^-ΔΔCt, mean ± SD, control 1.000
Procedure: as §1

[4] = system: superoxide dismutase (SOD2); test: qRT-PCR relative mRNA expression, SOD2; conditions: G-361, 48 h incubation, RQ = 2^-ΔΔCt, mean ± SD, control 1.001
Procedure: as §1

[5] = system: BJ normal fibroblast cell line; test: MTT cytotoxicity, BJ normal fibroblasts; conditions: for toxic to normal fibroblasts (MTT test): BJ, concentration range used; for IC50: MTT test
Procedure: Biological studies were performed on human malignant melanoma G-361 (ATCC CRL-1424) cell lines and human fibroblast BJ (ATCC® CRL-2522™) cell lines purchased from the American Type Culture Collection (ATCC, Manassas, VA USA). The G-361 cell lines were maintained in McCoy’s medium (Corning, NY, USA), and the fibroblast BJ cell line was cultured in EMEM (Corning, NY, USA). All media were supplemented with 10% heat-inactivated fetal bovine serum (PAN-Biotech, Aidenbach, Germany), 100 U/mL penicillin, 100 μg/mL streptomycin and 0.25 μg/mL amphotericin B (Sigma-Aldrich, St. Louis, MO, USA). Cultures were maintained at 37 °C in a humidified atmosphere of 95% air and 5% CO2. The experiments were performed using cells from passage 5 to 10.
The cytotoxicity of the new compounds was evaluated against both the G-361 and BJ cell lines. Cells were seeded into 96-well plates at a density of 3 × 10^4 cells/well and 2 × 10^4 cells/well. After 24 h of incubation, when 70–80% confluence was reached, the culture medium was removed and replaced with the fresh one containing the tested compounds in the concentration range of 10, 25, 50, 75, 100, 125 and 250 μM. Cells were cultured at 37 °C in the presence of 5% air with CO2 for another 24 h. The cytotoxicity of the test compounds was evaluated by the MTT colorimetric assay, based on the ability of live cells to convert yellow soluble tetrazolium salts (3-[4,5-dimethylthiazol-2-yl]- 2,5-diphenyltetrazolium bromide, MTT) to purple insoluble formazan by cellular dehydrogenase. After 24 h of incubation with solutions of the test compounds, 4 mg/mL MTT solution (Thermo Scientific, Waltham, MA, USA) was added to the cell cultures and incubation was continued for 4 h at 37 °C. The MTT medium was then removed, and the resulting crystals were dissolved in 200 µL of DMSO. The solution was measured for absorbance at 570 nm using a Power Wave xs spectrophotometric plate reader, BioTek Instruments (Winooski, VT, USA). The experiment was performed three times with three replicates for each concentration. IC50 values were determined using the AAT Bioquest IC50 calculator.

[6] = 24 h treatment, BJ normal fibroblasts, concentration range 10-250 µM, read-out: IC50 BJ
[7] = BJ fibroblasts, further analysis, value in parentheses after >250, read-out: IC50 BJ (value in parentheses)

SMILES	CAT expression change (catalase (CAT))	Relative mRNA expression level CAT (RQ) (catalase (CAT))	GSH content analysis, quadrant Q1ll (melanoma line G-361 [1]) [%]	GSH content analysis, quadrant Q1lr (melanoma line G-361 [1]) [%]	GSH content analysis, quadrant Q1ul (melanoma line G-361 [1]) [%]	GSH content analysis, quadrant Q1ur (melanoma line G-361 [1]) [%]	Q1ll, normal cells (melanoma line G-361 [2]) [%]	Q1lr, early apoptotic cells (melanoma line G-361 [2]) [%]	Q1ul, necrotic cells (melanoma line G-361 [2]) [%]	Q1ur, late apoptotic cells (melanoma line G-361 [2]) [%]	Relative mRNA expression level DHODH (RQ) [3]	Relative mRNA expression level SOD2 (RQ) [4]	toxic to normal fibroblasts (MTT test) [5]	IC50 ([5]; Homo sapiens, Fibroblast, 24 h treatment, BJ normal fibroblasts, concentration range 10-250 µM, read-out: IC50 BJ) [µM]	IC50 ([5]; Homo sapiens, Fibroblast, BJ fibroblasts, further analysis, value in parentheses after >250, read-out: IC50 BJ (value in parentheses)) [µM]	IC50 [5, 6] [µM]	IC50 [5, 7] [µM]
CSc1ccc(NC(=S)NNC(=O)COc2ccc(Cl)cc2Cl)cc1 [PK2, 1-(2,4-dichlorophenoxy)acetyl-4-(4-metylothiophenyl)thiosemicarbazide]	reduction	0.107 ± 0.013	3	44	30	23	52	7	2	39	0.463 ± 0.016	1.486 ± 0.056	not toxic	> 250	828	–	–
O=C(COc1ccc(Cl)cc1Cl)NNC(=S)Nc1ccccc1I [PK6, 1-(2,4-dichlorophenoxy)acetyl-4-(2-iodophenyl)thiosemicarbazide]	increased	2.691 ± 0.127	4	46	28	22	30	17	4	49	0.824 ± 0.030	1.249 ± 0.080	not toxic	–	–	> 250	631
O=C(COc1ccc(Cl)cc1Cl)NNC(=S)Nc1cccc2ccccc12 [PK9, 1-(2,4-dichlorophenoxy)acetyl-4-(1-naphtyl)thiosemicarbazide]	reduction	0.354 ± 0.022	3	41	26	30	32	28	1	39	0.375 ± 0.018	1.293 ± 0.100	not toxic	–	–	> 250	894

Source: article PMC8961551, “Potential Anticancer Agents against Melanoma Cells Based on an As-Synthesized Thiosemicarbazide Derivative” (Biomolecules, 2022)
